Structures can show the parent of a compound that is named as a salt.
Columns and labels:
[1] = Thermal stability by thermal gravimetric analysis (TGA); assay type: physicochemical
Method: The thermal stability of samples of treprostinil erbumine salt, prepared as described above, and treprostinil free acid, purchased from a chemical supply company, are analyzed through thermal gravimetric analyses (TGA) performed on a TA Instruments TGA-Q5000 thermal gravimetric analyzer and differential scanning calorimetry (DSC) performed on a TA Instruments Q2000 differential scanning calorimeter. FIGS. 1 (erbumine salt) and 2 (free acid) show overlays of the TGA thermograms from 25-225° C. and the DSC thermograms from 25-300° C. […] DSC data for the erbumine salt show a single endothermic event (likely melt or decomposition) beginning at 143.73° C. and three endothermic events (71.17° C., 95.57° C., and 125.15° C.) for the free acid, corresponding to what is likely a hydrate along with at least two anhydrous crystal forms.

[2] = Hygroscopicity by dynamic vapor sorption/resorption, with XRD of samples from the adsorption/desorption process; assay type: physicochemical; conditions: for weight increase at the 80% relative humidity point: dried samples, sorption in 5% RH steps; for hygroscopicity classification: from weight increase at 80% relative humidity, European Pharmacopoeia monograph 5.11 definitions, experimental conditions differ; for physical form change on humidity exposure (XRD): samples collected at different points in the adsorption/desorption process
Method: Hygroscopicity analyses of treprostinil erbumine salt, prepared as described above, and treprostinil sodium, purchased from a chemical supply company, are performed on a TA Instruments Q5000SA sorption analyzer. Hygroscopicity profiles are generated on dried samples at 25° C., increasing relative humidity by 5% up to 95%, then decreasing in 5% intervals back down to 5% relative humidity. The samples are equilibrated at each increment until weight percent change is <0.0100 for 5 min.

CCCCC[C@H](O)CC[C@@H]1[C@H]2Cc3cccc(OCC(=O)O)c3C[C@H]2C[C@H]1O [erbumine salt, 2-[[(1R,2R,3aS,9aS)-2-hydroxy-1-[(3S)-3-hydroxyoctyl]-2,3,3a,4,9,9a-hexahydro-1H-cyclopenta[g]naphthalen-5-yl]oxy]acetic acid t-butylamine]
TGA weight loss ([1]; between 25-100° C.): 0.2318% | thermally stable up to ([1]; conclusion from TGA/DSC thermal characterization data): at least 100 °C | weight increase at the 80% relative humidity point ([2]; 25° C.): < 0.2% | hygroscopicity classification [2]: non-hygroscopic to slightly hygroscopic | physical form change on humidity exposure (XRD) [2]: did not show a physical form change

CCCCC[C@H](O)CC[C@@H]1[C@H]2Cc3cccc(OCC(=O)O)c3C[C@H]2C[C@H]1O [free acid, (1R,2R,3aS,9aS)-[[2,3,3a,4,9,9a-Hexahydro-2-hydroxy-1-[(3S)-3-hydroxyoctyl]-1H-benz[f]inden-5-yl]oxy]acetic acid]
TGA weight loss ([1]; between 26-70° C.): 1.090%

CCCCC[C@H](O)CC[C@@H]1[C@H]2Cc3cccc(OCC(=O)O)c3C[C@H]2C[C@H]1O [sodium salt]
relative humidity at which desorption of water begins ([2]; 25° C., desorption in 5% RH steps from 95%): 45 % RH | weight increase at the 80% relative humidity point ([2]; 25° C.): 25% | hygroscopicity classification [2]: very hygroscopic | physical form change on humidity exposure (XRD) [2]: non-reversible change to amorphous or poorly crystalline state

Reference: patent US12102610B2, “Treprostinil salt” (Eli Lilly and Company, priority 2018, dated 2024)
